Data taken from the SangsterLogP compilation.
Where a SMILES comes first, the peptide text is derived from it.

Tests used:
[1] = method code SF-HPLC, from DOI: 10.1002/qsar.19900090302; details: pH 7.0
[2] = method code SF-AS, from DOI: 10.1002/qsar.19900090302; details: pH 7.0

| logD [1] | logD [2] | Structure (SMILES) |
| --- | --- | --- |
| -0.78 | – | CC(=O)NCC(=O)N[C@@H](CC(C)C)C(N)=O |
| -1.3 | – | CC(=O)N[C@@H](CC(C)C)C(=O)N[C@@H](CC(N)=O)C(N)=O |
| – | -0.79 | CC(=O)N[C@@H](CO)C(=O)N[C@@H](Cc1ccccc1)C(N)=O |
| – | 0.99 | CC(=O)N[C@@H](Cc1c[nH]c2ccccc12)C(=O)NCC(=O)N[C@@H](Cc1ccccc1)C(N)=O |
| – | -0.2 | CC(=O)N[C@@H](Cc1ccc(O)cc1)C(=O)N[C@H](C(N)=O)C(C)C |
| – | 0.6 | CC(=O)N[C@@H](Cc1ccccc1)C(=O)NCC(=O)N[C@@H](CC(C)C)C(N)=O |
| – | -1.03 | CC(=O)N[C@@H](Cc1ccccc1)C(=O)N[C@@H](CCC(N)=O)C(N)=O |
| -1.4 | – | CC(=O)N[C@H](C(=O)N[C@@H](C)C(=O)N[C@@H](C)C(N)=O)C(C)C |
| -0.2 | – | CC[C@H](C)[C@H](NC(=O)[C@@H](NC(=O)[C@H](C)NC(C)=O)C(C)C)C(N)=O |
| – | -0.71 | CC(=O)N[C@@H](C)C(=O)NCC(=O)N[C@@H](Cc1ccccc1)C(N)=O (Ac-Ala-Gly-Phe-NH2) |
| -0.54 | – | CC(=O)N[C@@H](C)C(=O)N[C@@H](CC(C)C)C(N)=O (Ac-Ala-Leu-NH2) |
| -0.14 | – | CC(=O)N[C@@H](C)C(=O)N[C@@H](CC(C)C)C(=O)N[C@H](C(N)=O)C(C)C (Ac-Ala-Leu-Val-NH2) |
| – | -0.04 | CC(=O)N[C@@H](C)C(=O)N[C@@H](Cc1ccc(O)cc1)C(=O)N[C@@H](CC(C)C)C(N)=O (Ac-Ala-Tyr-Leu-NH2) |
| – | 0.26 | CC(=O)N[C@@H](C)C(=O)N[C@@H](Cc1ccc(O)cc1)C(=O)N[C@@H](Cc1ccccc1)C(N)=O (Ac-Ala-Tyr-Phe-NH2) |
| -1.13 | – | CC(=O)N[C@@H](C)C(=O)N[C@H](C(N)=O)C(C)C (Ac-Ala-Val-NH2) |
| -1.43 | – | CC[C@H](C)[C@H](NC(=O)[C@H](CC(N)=O)NC(C)=O)C(N)=O (Ac-Asn-Ile-NH2) |
| – | -1.14 | CC(=O)NC(CC(N)=O)C(=O)NC(Cc1ccccc1)C(N)=O (stereo not drawn) (Ac-Asn-Phe-NH2; configuration not given here) |
| -1.85 | – | CC(=O)NC(CC(N)=O)C(=O)NC(C(N)=O)C(C)C (stereo not drawn) (Ac-Asn-Val-NH2; configuration not given here) |
| -1.32 | – | CC(=O)NC(CCC(N)=O)C(=O)NC(CC(C)C)C(N)=O (stereo not drawn) (Ac-Gln-Leu-NH2; configuration not given here) |
| – | -1.14 | CC(=O)N[C@@H](CCC(N)=O)C(=O)N[C@@H](Cc1ccccc1)C(N)=O (Ac-Gln-Phe-NH2) |
| -1.85 | – | CC(=O)NC(CCC(N)=O)C(=O)NC(C(N)=O)C(C)C (stereo not drawn) (Ac-Gln-Val-NH2; configuration not given here) |
| -1.56 | – | CC(=O)NCC(=O)N[C@@H](C)C(=O)N[C@H](C(N)=O)C(C)C (Ac-Gly-Ala-Val-NH2) |
| -1.23 | – | CC(=O)NCC(=O)N[C@@H](CC(C)C)C(=O)NCC(N)=O (Ac-Gly-Leu-Gly-NH2) |
| – | -0.56 | CC(=O)NCC(=O)N[C@@H](Cc1ccccc1)C(N)=O (Ac-Gly-Phe-NH2) |
| -1.33 | – | CC(=O)NCC(=O)N[C@H](C(N)=O)C(C)C (Ac-Gly-Val-NH2) |
| -1.41 | – | CC[C@H](C)[C@H](NC(C)=O)C(=O)N[C@@H](CC(N)=O)C(N)=O (Ac-Ile-Asn-NH2) |

| logD [1] | logD [2] | Structure (SMILES) |
| --- | --- | --- |
| – | 0.52 | CC[C@H](C)[C@H](NC(C)=O)C(=O)N[C@@H](Cc1ccccc1)C(=O)N[C@@H](C)C(N)=O (Ac-Ile-Phe-Ala-NH2) |
| 0.16 | – | CC[C@H](C)[C@H](NC(C)=O)C(=O)N[C@H](C(N)=O)C(C)C (Ac-Ile-Val-NH2) |
| 0.68 | – | CC[C@H](C)[C@H](NC(=O)[C@H](CC(C)C)NC(C)=O)C(N)=O (Ac-Leu-Ile-NH2) |
| – | 0.23 | CC(=O)N[C@@H](CC(C)C)C(=O)N[C@@H](CO)C(=O)N[C@@H](Cc1ccccc1)C(N)=O (Ac-Leu-Ser-Phe-NH2) |
| 0.24 | – | CC(=O)N[C@@H](CC(C)C)C(=O)N[C@H](C(=O)N[C@@H](CC(C)C)C(N)=O)[C@@H](C)O (Ac-Leu-Thr-Leu-NH2) |
| 0.26 | – | CC(=O)N[C@@H](CC(C)C)C(=O)N[C@H](C(N)=O)C(C)C (Ac-Leu-Val-NH2) |
| – | -0.5 | CC(=O)N[C@@H](Cc1ccccc1)C(=O)NCC(N)=O (Ac-Phe-Gly-NH2) |
| – | 0.34 | CC[C@H](C)[C@H](NC(=O)[C@H](Cc1ccccc1)NC(C)=O)C(=O)NCC(N)=O (Ac-Phe-Ile-Gly-NH2) |
| – | 0.43 | CC(=O)N[C@@H](Cc1ccccc1)C(=O)N[C@H](C(N)=O)C(C)C (Ac-Phe-Val-NH2) |
| -1.53 | – | CC(=O)N[C@@H](CO)C(=O)N[C@H](C(N)=O)C(C)C (Ac-Ser-Val-NH2) |
| -0.86 | – | CC[C@H](C)[C@H](NC(=O)[C@@H](NC(C)=O)[C@@H](C)O)C(N)=O (Ac-Thr-Ile-NH2) |
| -1.25 | – | CC(=O)N[C@H](C(=O)N[C@H](C(N)=O)C(C)C)[C@@H](C)O (Ac-Thr-Val-NH2) |
| – | -0.31 | CC(=O)N[C@@H](Cc1c[nH]c2ccccc12)C(=O)N[C@@H](C)C(=O)N[C@@H](C)C(N)=O (Ac-Trp-Ala-Ala-NH2) |
| – | 0.36 | CC(=O)N[C@@H](Cc1c[nH]c2ccccc12)C(=O)N[C@@H](C)C(=O)N[C@H](C(N)=O)C(C)C (Ac-Trp-Ala-Val-NH2) |
| – | 0.62 | CC[C@H](C)[C@H](NC(=O)[C@H](Cc1c[nH]c2ccccc12)NC(C)=O)C(=O)NCC(N)=O (Ac-Trp-Ile-Gly-NH2) |
| – | 0.73 | CC(=O)N[C@@H](Cc1c[nH]c2ccccc12)C(=O)N[C@H](C(N)=O)C(C)C (Ac-Trp-Val-NH2) |
| – | 0.32 | CC(=O)N[C@@H](Cc1ccc(O)cc1)C(=O)N[C@@H](CC(C)C)C(N)=O (Ac-Tyr-Leu-NH2) |
| – | 0.54 | CC(=O)N[C@@H](Cc1ccc(O)cc1)C(=O)N[C@@H](Cc1ccccc1)C(N)=O (Ac-Tyr-Phe-NH2) |
| -1.14 | – | CC(=O)N[C@H](C(=O)N[C@@H](C)C(N)=O)C(C)C (Ac-Val-Ala-NH2) |
| -0.67 | – | CC(=O)N[C@H](C(=O)N[C@@H](C)C(=O)N[C@H](C(N)=O)C(C)C)C(C)C (Ac-Val-Ala-Val-NH2) |
| -1.82 | – | CC(=O)NC(C(=O)NC(CCC(N)=O)C(N)=O)C(C)C (stereo not drawn) (Ac-Val-Gln-NH2; configuration not given here) |
| -0.45 | – | CC[C@H](C)[C@H](NC(=O)[C@@H](NC(C)=O)C(C)C)C(=O)NCC(N)=O (Ac-Val-Ile-Gly-NH2) |
| – | 0.06 | CC(=O)N[C@H](C(=O)N[C@@H](Cc1ccccc1)C(=O)N[C@@H](C)C(N)=O)C(C)C (Ac-Val-Phe-Ala-NH2) |
| 0.49 | – | CC[C@H](C)[C@H](NC(=O)[C@@H](NC(=O)[C@@H](NC(C)=O)C(C)C)C(C)C)C(N)=O (Ac-Val-Val-Ile-NH2) |
| -0.32 | – | CC(=O)N[C@H](C(=O)N[C@H](C(N)=O)C(C)C)C(C)C (Ac-Val-Val-NH2) |
